The target in this test is T1, cystine/glutamate antiporter (system xc-) (Homo sapiens, UniProt Q9UPY5).
T1 construct: gene SLC7A11
T1 sequence (Q9UPY5 1-501): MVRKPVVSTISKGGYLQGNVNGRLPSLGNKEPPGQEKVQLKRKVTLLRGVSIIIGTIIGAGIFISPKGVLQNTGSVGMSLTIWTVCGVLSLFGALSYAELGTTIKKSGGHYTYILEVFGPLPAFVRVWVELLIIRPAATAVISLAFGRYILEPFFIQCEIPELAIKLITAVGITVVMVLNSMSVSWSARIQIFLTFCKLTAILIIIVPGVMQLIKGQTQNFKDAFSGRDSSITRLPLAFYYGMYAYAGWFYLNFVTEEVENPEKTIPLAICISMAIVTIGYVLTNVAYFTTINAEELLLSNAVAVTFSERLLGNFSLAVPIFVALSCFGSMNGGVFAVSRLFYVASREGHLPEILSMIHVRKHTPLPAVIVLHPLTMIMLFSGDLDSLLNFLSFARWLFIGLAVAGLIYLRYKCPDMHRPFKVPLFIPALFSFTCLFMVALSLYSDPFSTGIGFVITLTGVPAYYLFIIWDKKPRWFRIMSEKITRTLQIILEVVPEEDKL
T1 sequence (P08195 2-529 partner): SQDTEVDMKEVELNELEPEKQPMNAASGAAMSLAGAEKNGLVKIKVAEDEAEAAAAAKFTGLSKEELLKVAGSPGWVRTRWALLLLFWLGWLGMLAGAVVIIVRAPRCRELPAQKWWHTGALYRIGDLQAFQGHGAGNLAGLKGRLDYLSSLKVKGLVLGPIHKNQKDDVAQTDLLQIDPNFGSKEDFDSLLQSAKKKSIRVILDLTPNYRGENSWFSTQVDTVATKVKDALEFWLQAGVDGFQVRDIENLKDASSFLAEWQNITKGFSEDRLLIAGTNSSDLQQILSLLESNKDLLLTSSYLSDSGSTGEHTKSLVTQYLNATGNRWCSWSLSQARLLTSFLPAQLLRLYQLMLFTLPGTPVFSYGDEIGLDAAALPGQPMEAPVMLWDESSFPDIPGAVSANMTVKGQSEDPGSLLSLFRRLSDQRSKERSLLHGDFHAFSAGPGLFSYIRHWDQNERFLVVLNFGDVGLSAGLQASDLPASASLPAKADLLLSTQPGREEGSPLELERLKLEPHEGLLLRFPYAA
Description: […]-cystine uptake inhibition in AsPC-1 cells, […] min at […]. The following applies: ASPC1; read-out: % blockade at 200 μM. It is filed as cell-based.

With `CCOc1ccccc1-n1c(CN2CCN(C(=O)COc3ccc(CNCCCCCCN4C5CCCC4CC(OC(=O)Nc4cc(C)ccc4OC)C5)cc3)CC2)nc2ccccc2c1=O` (stereo not shown) [SW V-49], the inhibition at 200 µM is 85%.

The values are drawn from article PMC5085100, “Conjugation to the sigma-2 ligand SV119 overcomes uptake blockade and converts dm-Erastin into a potent pancreatic cancer therapeutic” (Oncotarget, 2016).
